# From ChEMBL document CHEMBL4725294, “Centrally Active Multitarget Anti-Alzheimer Agents Derived from the Antioxidant Lead CR-6” (J Med Chem, 2020)
# Active and inactive are the calls of the source. No cut-off for these calls is given here.
# Key:
# [1] = Drug metabolism in human liver microsomes assessed as N-[8-[(6-chloro-1,2,3,4-tetrahydroacridin-9-yl)amino]octyl]-2-(8-methoxy-2-methyl-6,9-dioxo-1-oxaspiro[4.5]dec-7-en-2-yl)acetamide formation at 5 uM measured up to 60 mins by UPLC-MS/MS analysis; format: ADME, Microsome; settings: 1 h
# [2] = Drug metabolism in mouse liver microsomes assessed as 6-chloro-1,2,3,4-tetrahydroacridin-9-amine formation at 5 uM measured up to 60 mins by UPLC-MS/MS analysis; format: ADME, Microsome; settings: 1 h
# [3] = Acute toxicity in C57BL6/J mouse at 5 to 10 mg/kg, ip measured up to 24 hrs; format: organism-based; settings: in vivo, dose 5-10 mg/kg
# [4] = Drug metabolism in rat liver microsomes assessed as 6-chloro-1,2,3,4-tetrahydroacridin-9-amine formation at 5 uM measured up to 60 mins by UPLC-MS/MS analysis; format: ADME, Microsome; settings: 1 h
# [5] = Stability in mouse plasma assessed as parent compound remaining at 10 uM measured after 60 mins by UPLC-MS/MS analysis; format: ADME, cell-free; settings: read-out: Stabilty
# [6] = Acute toxicity in C57BL6/J mouse assessed as reduction in locomotor activity at 15 mg/kg, ip measured after 5 mins; format: organism-based; settings: in vivo
# [7] = Drug metabolism in mouse liver microsomes assessed as N-[8-[(6-chloro-1,2,3,4-tetrahydroacridin-9-yl)amino]octyl]-2-(8-methoxy-2-methyl-6,9-dioxo-1-oxaspiro[4.5]dec-7-en-2-yl)acetamide formation at 5 uM measured up to 60 mins by UPLC-MS/MS analysis; format: ADME, Microsome; settings: 1 h
# Mus musculus [8] = assay: Antialzheimer activity in APP/PS1 double mutant-transgenic C57BL6/J mouse model assessed as increase in Adam10 expression at 10 mg/kg/day, ip for 4 weeks followed by compound washout and measured after 24 hrs by Western blot analysis; format: functional, organism-based
# [9] = Stability in mouse liver microsomes assessed as parent compound remaining at 5 uM measured up to 60 mins by UPLC-MS/MS analysis; format: ADME, Microsome; settings: read-out: Stabilty
# Mus musculus [10] = assay: Antialzheimer activity in APP/PS1 double mutant-transgenic C57BL6/J mouse model assessed as reduction in Bace1 gene expression at 10 mg/kg/day, ip for 4 weeks followed by compound washout and measured after 24 hrs by qPCR analysis; format: functional, organism-based
# [11] = Intrinsic clearance in rat liver microsomes assessed per mg protein at 5 uM by UPLC-MS/MS analysis; format: ADME, Microsome; settings: read-out: CLH
# [12] = Drug metabolism in rat liver microsomes assessed as N-[8-[(6-chloro-1,2,3,4-tetrahydroacridin-9-yl)amino]octyl]-5-(2,5-dihydroxy-4-methoxy-phenyl)-3-hydroxy-3-methyl-pentanamide formation at 5 uM measured up to 60 mins by UPLC-MS/MS analysis; format: ADME, Microsome; settings: 1 h
# [13] = Drug metabolism in mouse liver microsomes assessed as N-[8-[(6-chloro-1,2,3,4-tetrahydroacridin-9-yl)amino]octyl]-5-(2,5-dihydroxy-4-methoxy-phenyl)-3-hydroxy-3-methyl-pentanamide formation at 5 uM measured up to 60 mins by UPLC-MS/MS analysis; format: ADME, Microsome; settings: 1 h
# [14] = Drug metabolism in human liver microsomes assessed as 6-chloro-1,2,3,4-tetrahydroacridin-9-amine formation at 5 uM measured up to 60 mins by UPLC-MS/MS analysis; format: ADME, Microsome; settings: 1 h
# [15] = Acute toxicity in C57BL6/J mouse assessed as piloerection at 15 mg/kg, ip measured after 5 mins; format: organism-based; settings: in vivo
# [16] = Drug metabolism in human liver microsomes assessed as N-[8-[(6-chloro-1,2,3,4-tetrahydroacridin-9-yl)amino]octyl]-5-(2,5-dihydroxy-4-methoxy-phenyl)-3-hydroxy-3-methyl-pentanamide formation at 5 uM measured up to 60 mins by UPLC-MS/MS analysis; format: ADME, Microsome; settings: 1 h
# [17] = Intrinsic clearance in mouse liver microsomes assessed per mg protein at 5 uM by UPLC-MS/MS analysis; format: ADME, Microsome; settings: read-out: CLH
# [18] = Stability in human plasma assessed as parent compound remaining at 10 uM measured after 180 mins by UPLC-MS/MS analysis; format: ADME, cell-free; settings: read-out: Stabilty
# [19] = Stability in rat plasma assessed as parent compound remaining at 10 uM measured after 180 mins by UPLC-MS/MS analysis; format: ADME, cell-free; settings: read-out: Stabilty
# [20] = Half life in human liver microsomes at 5 uM by UPLC-MS/MS analysis; format: ADME, Microsome
# Mus musculus [21] = assay: Antialzheimer activity in APP/PS1 double mutant-transgenic C57BL6/J mouse model assessed as reduction in soluble amyloid beta 42 level in cortex at 10 mg/kg/day, ip for 4 weeks followed by compound washout and measured after 24 hrs by ELISA; format: functional, organism-based
# [22] = Stability in human plasma assessed as parent compound remaining at 10 uM measured immediately by UPLC-MS/MS analysis; format: ADME, cell-free; settings: read-out: Stabilty
# Mus musculus [23] = assay: Antialzheimer activity in APP/PS1 double mutant-transgenic C57BL6/J mouse model assessed as reduction in amyloid beta burden in cortex at 10 mg/kg/day, ip for 4 weeks followed by compound washout and measured after 24 hrs by hematoxylin staining based microscopic analysis; format: functional, organism-based
# [24] = Drug metabolism in rat liver microsomes assessed as N-[8-[(6-chloro-1,2,3,4-tetrahydroacridin-9-yl)amino]octyl]-2-(8-methoxy-2-methyl-6,9-dioxo-1-oxaspiro[4.5]dec-7-en-2-yl)acetamide formation at 5 uM measured up to 60 mins by UPLC-MS/MS analysis; format: ADME, Microsome; settings: 1 h
# [25] = Stability in human liver microsomes assessed as parent compound remaining at 5 uM measured up to 60 mins by UPLC-MS/MS analysis; format: ADME, Microsome; settings: read-out: Stabilty
# Mus musculus [26] = assay: Antialzheimer activity in APP/PS1 double mutant-transgenic C57BL6/J mouse model assessed as effect on iNOS gene expression at 10 mg/kg/day, ip for 4 weeks followed by compound washout and measured after 24 hrs by qPCR analysis; format: functional, organism-based
# [27] = Stability in rat plasma assessed as parent compound remaining at 10 uM measured after 60 mins by UPLC-MS/MS analysis; format: ADME, cell-free; settings: read-out: Stabilty
# [28] = Acute toxicity in C57BL6/J mouse at 15 mg/kg, ip measured after 3 hrs; format: organism-based; settings: in vivo
# in vitro = settings: PAMPA
# Description: Permeability of compound in PBS/EtOH buffer (7:3) PAMPA-BBB assay
# Mus musculus [29] = assay: Antialzheimer activity in APP/PS1 double mutant-transgenic C57BL6/J mouse model assessed as increase in Adam10 gene expression at 10 mg/kg/day, ip for 4 weeks followed by compound washout and measured after 24 hrs by qPCR analysis; format: functional, organism-based
# Mus musculus [30] = assay: Antialzheimer activity in APP/PS1 double mutant-transgenic C57BL6/J mouse model assessed as reduction in Bace1 expression at 10 mg/kg/day, ip for 4 weeks followed by compound washout and measured after 24 hrs by Western blot analysis; format: functional, organism-based
# Mus musculus [31] = assay: Antialzheimer activity in APP/PS1 double mutant-transgenic C57BL6/J mouse model assessed as reduction in soluble amyloid beta 40 level in cortex at 10 mg/kg/day, ip for 4 weeks followed by compound washout and measured after 24 hrs by ELISA; format: functional, organism-based
# [32] = Half life in rat liver microsomes at 5 uM by UPLC-MS/MS analysis; format: ADME, Microsome
# [33] = Stability in human plasma assessed as parent compound remaining at 10 uM measured after 360 mins by UPLC-MS/MS analysis; format: ADME, cell-free; settings: read-out: Stabilty
# [34] = Stability in human plasma assessed as parent compound remaining at 10 uM measured after 60 mins by UPLC-MS/MS analysis; format: ADME, cell-free; settings: read-out: Stabilty
compound,measurement,setting,value
COc1cc2c(cc1O)CCC(C)(CC(=O)NCCCCCCCCNc1c3c(nc4cc(Cl)ccc14)CCCC3)O2 (stereo not given),Drug metabolism,[1],Metabolite_Detected
same,Drug metabolism,[2],Metabolite_Detected
same,Activity,[3],Non-Toxic
same,Drug metabolism,[4],Metabolite_Detected
same,"remaining at 1 h, 10 µM",[5],100%
same,Activity,[6],Toxic
same,Drug metabolism,[7],Metabolite_Detected
same,Activity,Mus musculus [8],inactive
same,"remaining at 1 h, 5 µM",[9],55.2%
same,Activity,Mus musculus [10],Active
same,microsomal CLint at 5 µM,[11],16.3 µL/min/mg
same,Drug metabolism,[12],Metabolite_Detected
same,Drug metabolism,[13],Metabolite_Detected
same,Drug metabolism,[14],Metabolite_Detected
same,Activity,[15],Toxic
same,Drug metabolism,[16],Metabolite_Detected
same,microsomal CLint at 5 µM,[17],13.7 µL/min/mg
same,"remaining at 3 h, 10 µM",[18],100%
same,"remaining at 3 h, 10 µM",[19],100%
same,half-life at 5 µM,[20],12.6 min
same,Activity,Mus musculus [21],inactive
same,"remaining at 0 min, 10 µM",[22],100%
same,Activity,Mus musculus [23],inactive
same,Drug metabolism,[24],Metabolite_Detected
same,"remaining at 1 h, 5 µM",[25],3.6%
same,Activity,Mus musculus [26],inactive
same,"remaining at 1 h, 10 µM",[27],100%
same,Activity,[28],Non-Toxic
same,Papp,in vitro,9.6 ×10⁻⁶ cm/s
same,Activity,Mus musculus [29],inactive
same,Activity,Mus musculus [30],inactive
same,Activity,Mus musculus [31],inactive
same,half-life at 5 µM,[32],42.4 min
same,"remaining at 6 h, 10 µM",[33],100%
same,"remaining at 1 h, 10 µM",[34],100%
